The values below come from BindingDB's records for doi:10.1016/j.bmc.2006.12.019 (Berlex, 2007).

Common to all, as to experiment: Enzyme Inhibition Assay
One test addresses Prothrombin (Homo sapiens, UniProt P00734). As to the method: (§1) The enzyme activities were determined kinetically as the initial rate of cleavage of a peptide p-nitroanilide. Km for enzyme and substrate was determined using four substrate dilutions. Enzyme was incubated with test compounds for 10 min; the reaction was then started by the addition of the substrate. […] IC50 values for inhibitors were determined from the dose response curve by fitting the data to the Hill equation. Ki,app values were calculated as the IC50/2, with the IC50 value determined at a substrate concentration equal to Km

Another test concerns the target T1, Serine protease 1 (Bos taurus, UniProt P00760).
T1 sequence (P00760 whole entry): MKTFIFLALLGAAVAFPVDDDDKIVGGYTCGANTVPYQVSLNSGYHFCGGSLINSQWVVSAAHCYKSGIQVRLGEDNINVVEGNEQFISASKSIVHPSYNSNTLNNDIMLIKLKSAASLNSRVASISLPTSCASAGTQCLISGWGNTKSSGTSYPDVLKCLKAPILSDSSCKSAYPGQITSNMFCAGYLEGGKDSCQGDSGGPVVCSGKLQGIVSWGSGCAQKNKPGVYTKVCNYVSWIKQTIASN
On the procedure:
as §1

The next test addresses Coagulation factor X (Homo sapiens, UniProt P00742). As to the method: as §1

Coagulation factor X, sequence (P00742 41-179 limits assumed): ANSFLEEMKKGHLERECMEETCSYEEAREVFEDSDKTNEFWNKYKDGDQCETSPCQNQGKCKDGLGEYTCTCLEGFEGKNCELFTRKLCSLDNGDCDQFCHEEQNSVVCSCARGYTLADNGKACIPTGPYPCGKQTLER
Coagulation factor X, sequence (P00742 235-488 limits assumed): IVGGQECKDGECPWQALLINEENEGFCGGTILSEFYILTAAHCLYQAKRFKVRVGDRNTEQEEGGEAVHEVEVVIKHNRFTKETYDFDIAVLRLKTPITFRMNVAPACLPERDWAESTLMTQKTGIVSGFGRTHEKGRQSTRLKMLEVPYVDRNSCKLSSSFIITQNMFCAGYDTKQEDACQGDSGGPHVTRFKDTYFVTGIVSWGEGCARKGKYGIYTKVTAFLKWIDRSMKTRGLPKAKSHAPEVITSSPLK

Usually Ki stands for a measure of affinity in units of concentration, obtained from inhibition or displacement. A low value points to tighter binding. For the compound `Cc1ccc(NC(=O)c2sc3ccccc3c2Cl)c(C(=O)Nc2ccc(Cl)cc2)c1` [3-chloro-N-{2-[(4-chlorophenyl)carbamoyl]-4-methylphenyl}-1-benzothiophene-2-carboxamide], the Ki at Prothrombin and on Serine protease 1 was greater than 5 µM in each case.

Take `CCCN1Cc2sc(C(=O)Nc3ccc(Cl)cc3C(=O)Nc3ccc(Cl)cc3)c(Cl)c2C1` [3-chloro-N-{4-chloro-2-[(4-chlorophenyl)carbamoyl]phenyl}-5-propyl-4H,5H,6H-thieno[2,3-c]pyrrole-2-carboxamide]: the Ki on Prothrombin was determined as 3.2 µM; on Coagulation factor X, 0.0022 µM.

On Serine protease 1, `CCN1CCN(Cc2csc(C(=O)Nc3ccc(Cl)cc3C(=O)Nc3ccc(Cl)cc3)c2Cl)CC1` [3-chloro-N-{4-chloro-2-[(4-chlorophenyl)carbamoyl]phenyl}-4-[(4-ethylpiperazin-1-yl)methyl]thiophene-2-carboxamide] returned a Ki greater than 5 µM.

For `CN(C)CCN(C)Cc1csc(C(=O)Nc2ccc(Cl)cc2C(=O)Nc2ccc(Cl)cc2)c1Cl` [3-chloro-N-{4-chloro-2-[(4-chlorophenyl)carbamoyl]phenyl}-4-({[2-(dimethylamino)ethyl](methyl)amino}methyl)thiophene-2-carboxamide], the inhibitory constant (Ki) on Serine protease 1 was greater than 5 µM.

On to `CC1(C)OCC(COCc2csc(C(=O)Nc3ccc(Cl)cc3C(=O)Nc3ccc(Cl)cc3)c2Cl)O1` (stereo not given) [3-chloro-N-{4-chloro-2-[(4-chlorophenyl)carbamoyl]phenyl}-4-{[(2,2-dimethyl-1,3-dioxolan-4-yl)methoxy]methyl}thiophene-2-carboxamide], for which the Ki on Serine protease 1 is greater than 5 µM.

Compound `CS(=O)(=O)Cc1csc(C(=O)Nc2ccc(Cl)cc2C(=O)Nc2ccc(Cl)cc2)c1Cl` [3-chloro-N-{4-chloro-2-[(4-chlorophenyl)carbamoyl]phenyl}-4-(methanesulfonylmethyl)thiophene-2-carboxamide] displayed a Ki on Serine protease 1 greater than 5 µM.

In turn, `Cc1cccc2sc(C(=O)Nc3ccc(Cl)cc3C(=O)Nc3ccc(Cl)cc3)c(Cl)c12` [3-chloro-N-{4-chloro-2-[(4-chlorophenyl)carbamoyl]phenyl}-4-methyl-1-benzothiophene-2-carboxamide] returned a Ki on Serine protease 1 greater than 5 µM.

The compound `CN1CCN(Cc2csc(C(=O)Nc3ccc(Cl)cc3C(=O)Nc3ccc(Cl)cc3)c2Cl)CC1` [thiophene-containing non-amidine inhibitor, 31] registered a Ki on Serine protease 1 greater than 5 µM.
